Target: ALK tyrosine kinase receptor (Homo sapiens, UniProt Q9UM73)
Assay: Inhibition of baculovirus expressed GST-tagged human ALK cytoplasmic domain using PLCgamma as substrate after 15 mins by time-resolved fluorescence analysis

ALK tyrosine kinase receptor, sequence (Q9UM73 whole entry, the tested form may be a part): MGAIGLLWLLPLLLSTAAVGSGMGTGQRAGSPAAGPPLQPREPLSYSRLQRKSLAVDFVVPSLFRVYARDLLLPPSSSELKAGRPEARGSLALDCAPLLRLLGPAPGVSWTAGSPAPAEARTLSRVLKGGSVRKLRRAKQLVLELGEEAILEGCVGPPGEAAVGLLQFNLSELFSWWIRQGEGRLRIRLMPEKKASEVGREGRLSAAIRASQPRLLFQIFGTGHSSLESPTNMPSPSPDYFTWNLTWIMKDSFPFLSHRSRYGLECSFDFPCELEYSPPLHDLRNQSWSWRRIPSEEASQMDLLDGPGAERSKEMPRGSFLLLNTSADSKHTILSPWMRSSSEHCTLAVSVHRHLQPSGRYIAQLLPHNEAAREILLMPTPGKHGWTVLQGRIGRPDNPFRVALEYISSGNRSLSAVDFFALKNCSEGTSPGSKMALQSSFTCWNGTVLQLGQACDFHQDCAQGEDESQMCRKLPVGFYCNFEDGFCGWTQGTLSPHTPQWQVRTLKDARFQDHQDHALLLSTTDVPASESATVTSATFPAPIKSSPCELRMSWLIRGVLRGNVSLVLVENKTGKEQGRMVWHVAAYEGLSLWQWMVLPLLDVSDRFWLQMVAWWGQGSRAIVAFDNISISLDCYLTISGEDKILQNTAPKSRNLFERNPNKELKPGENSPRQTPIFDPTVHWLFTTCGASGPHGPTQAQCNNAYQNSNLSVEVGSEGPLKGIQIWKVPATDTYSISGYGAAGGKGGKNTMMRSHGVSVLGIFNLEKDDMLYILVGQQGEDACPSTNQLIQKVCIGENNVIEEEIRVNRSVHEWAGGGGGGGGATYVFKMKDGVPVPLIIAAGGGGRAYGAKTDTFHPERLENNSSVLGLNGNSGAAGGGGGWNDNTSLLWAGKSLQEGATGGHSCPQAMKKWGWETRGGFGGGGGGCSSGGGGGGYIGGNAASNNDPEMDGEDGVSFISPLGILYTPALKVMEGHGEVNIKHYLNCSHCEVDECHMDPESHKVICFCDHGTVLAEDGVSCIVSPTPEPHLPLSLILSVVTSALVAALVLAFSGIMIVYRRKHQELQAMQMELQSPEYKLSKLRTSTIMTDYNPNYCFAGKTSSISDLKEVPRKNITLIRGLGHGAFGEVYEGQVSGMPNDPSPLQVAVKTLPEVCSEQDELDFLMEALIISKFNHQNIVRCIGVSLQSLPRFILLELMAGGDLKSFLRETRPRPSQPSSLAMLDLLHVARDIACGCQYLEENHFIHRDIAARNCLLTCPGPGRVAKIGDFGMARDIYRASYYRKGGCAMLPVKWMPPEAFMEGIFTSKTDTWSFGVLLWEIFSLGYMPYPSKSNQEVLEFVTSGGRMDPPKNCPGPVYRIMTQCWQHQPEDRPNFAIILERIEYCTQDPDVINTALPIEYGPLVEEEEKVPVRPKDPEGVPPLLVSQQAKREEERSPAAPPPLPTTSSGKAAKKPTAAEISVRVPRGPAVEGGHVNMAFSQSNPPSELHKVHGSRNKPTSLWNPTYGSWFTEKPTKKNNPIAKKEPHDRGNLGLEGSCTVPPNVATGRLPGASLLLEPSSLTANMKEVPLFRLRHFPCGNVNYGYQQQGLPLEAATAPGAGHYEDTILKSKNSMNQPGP

| SMILES | IC50 |
| --- | --- |
| Clc1cnc2nc1Nc1cccc(c1)CCc1cccc(c1)N2 | > 10 µM |
| Clc1cnc2nc1Nc1cccc(c1)CCc1cc(ccc1N1CCOCC1)N2 | > 10 µM |
| COc1ccc2cc1Nc1nc(ncc1Cl)Nc1ccc(N3CCOCC3)c(c1)CC2 | > 1 µM |
